The values below come from US20230293406A1, “Compositions Comprising (Bio)-Alkanediols and Cooling Agents” (Symrise AG, priority 2020, published 2023).

In one assay the test system is Corynebacterium xerosis. Put plainly: Minimum Inhibitory Concentration (MIC) growth inhibition test and Kull Synergy Index. Type of assay: cell-based. To be noted: for MIC: Corynebacterium xerosis, read-out: MIC (ppm) Corynebacterium xerosis (converted). The protocol: (§1) The MIC test is a test on growth inhibition. Estimation of the Minimum Inhibitory Concentration (MIC) is executed in 96 well plates. Through the comparison of bacterial growth with positive and negative controls via optical density (OD), different concentrations of given test substances are evaluated. Bacteria are cultivated under adjusted conditions based on information of the German Collection of Microorganisms and Cell Cultures (DSMZ) and stored in 50% Glycerol prior to use. Afterwards, the following method was applied:
(§2) Adding growth medium (according to microorganism) to each well of the microplate. Adding the test-substances in different concentrations, positive controls (water controls only with medium) and negative controls (benchmarks according to organism). Adding the microorganism in a concentration of 10^6 CFU/ml (CFU=colony forming units). Incubation of the microplates at appropriate conditions.
(§3) According to resulting growth, substance concentrations are labelled either as inhibiting or not and the corresponding MIC is defined as the lowest concentration where a complete growth inhibition is visible. Experiments at concentration limits (highest concentration labelled as growth and lowest concentration labelled as inhibiting) are performed at least twice.
(§4) The synergistic activity of 1,2-alkanediols with cooling compounds was determined by measuring the corresponding minimum inhibitory concentrations (MIC values) according to the method described above for antimicrobial activity: Minimum Inhibitory Concentration (MIC)
(§5) In order to calculate the synergy index with MIC values, the Kull equation (I) was used as follows:
(§6) SI=(MICmix×PA)/MICA+(MICmix×PB)/MICB (I)
(§7) wherein • SI is the Synergy Index according to Kull • MICA is the MIC value for Substance A • MICB is the MIC value for Substance B • MICmix is the MIC value for the mixture of substances A and B • PA is the proportion of the substance A in the mixture • PB is the proportion of the substance B in the mixture
(§8) To verify that the tested combinations act synergistically against microorganisms of the natural microbiota of mammalian skin, a corresponding experiment was conducted with representative microbial species. The synergistic activities of mixtures of 1,2-heptanediol and Menthyl lactate as well as for 1,2-nonanediol and Menthyl lactate were determined by measuring the corresponding minimum inhibitory concentrations (MIC values) as indicated in the methods section.

The subject of the next assay is Staphylococcus hominis. The assay is described as above. Type of assay: cell-based. As for the experimental part: as §1, §2, §3, §4, §5, §6, §7, §8
Assay [1] is described as follows: Malodour coverage sensory test, trained panel, filter paper with sweat malodour. The note with it: for malodour coverage ranking 6 h: after 6 h; for malodour coverage ranking 24 h: after 24 h; for malodour coverage ranking 48 h: after 48 h. The protocol: Malodour coverage was tested in an established setup with a trained panel (n=5-9). For this sensory test, a defined amount of the material was applied on a filter paper together with a defined amount of sweat malodour. For evaluation, the panelists were asked to rate the individual samples on a scale from 0 to 10 (0: odourless; 10: strongest imaginable). The results of the malodour rating for all materials were ranked and the position of the individual materials compared over time. A synergistic effect regarding reduction of malodour was found for all mixtures of Frescolat ML and 1,2-heptanediol after 24 h and 48 h, respectively.

In a further assay the test system is Staphylococcus aureus. Put plainly: Minimum Inhibitory Concentration (MIC) growth inhibition test, 96 well plates, OD. The note with it: Table 1. The format is cell-based. As for the experimental part:
(§9) The MIC test is a test on growth inhibition. Estimation of the Minimum Inhibitory Concentration (MIC) is executed in 96 well plates. Through the comparison of bacterial growth with positive and negative controls via optical density (OD), different concentrations of given test substances are evaluated. Bacteria are cultivated under adjusted conditions based on information of the German Collection of Microorganisms and Cell Cultures (DSMZ) and stored in 50% Glycerol prior to use. Afterwards, the following method was applied: Adding growth medium (according to microorganism) to each well of the microplate. Adding the test-substances in different concentrations, positive controls (water controls only with medium) and negative controls (benchmarks according to organism). Adding the microorganism in a concentration of 10^6 CFU/ml (CFU=colony forming units). Incubation of the microplates at appropriate conditions. According to resulting growth, substance concentrations are labelled either as inhibiting or not and the corresponding MIC is defined as the lowest concentration where a complete growth inhibition is visible. Experiments at concentration limits (highest concentration labelled as growth and lowest concentration labelled as inhibiting) are performed at least twice.

The test system of a further assay is Candida albicans. Put plainly: Minimum Inhibitory Concentration (MIC) growth inhibition test. The format is cell-based. To be noted: Table 1. The protocol:
as §9

A further assay deals with Propionibacterium acnes. The assay is described as above. Type of assay: cell-based. To be noted: Cutibacterium acnes; Table 1; >5000: 5000 ppm tested, no growth inhibition. As for the experimental part:
as §9

The test system of the next assay is Escherichia coli. Described as above. Type of assay: cell-based. To be noted: Table 1. The protocol: as §9
The next assay concerns Corynebacterium jeikeium. The description is as above. The note with it: Table 1. Type of assay: cell-based. As for the experimental part: as §9
Setting [2] is: Table 3, single substances and mixtures with menthyl lactate.
[3] abbreviates: Table 4, single substances and mixtures with further cooling agents.
Setting [4] is: Table 3, single substances and mixtures with menthyl lactate, read-out: MIC (ppm) Staphylococcus hominis.
Where [5] appears, read: Ranking: 1 = lowest malodour to 6 = strongest malodour, Table 6.
Where [6] appears, read: Ranking: 1 = highest malodour to 6 = lowest malodour, single diols at 0.5%, Table 7.
Setting [7] is: Ranking: 1 = highest malodour to 6 = lowest malodour, single diols at 0.5%, Table 9.
[8] abbreviates: Ranking: 1 = highest malodour to 6 = lowest malodour, single diols at 0.5%, Table 8.
[9] abbreviates: Ranking: 1 = lowest malodour to 6 = strongest malodour, Table 5.

Values after ≈ are worked out from the molar mass of the structure shown. Like-named read-outs stand apart in the source and are kept apart here.

Take `CCCCCCCC(O)CO` (stereo not drawn) [1,2-C9, 1,2-nonanediol]: the “MIC (ppm) Corynebacterium xerosis” value with Corynebacterium xerosis (setting [2]) and in the assay with Corynebacterium xerosis (setting [3]) was 2 500 ppm in each case. In addition, in the assay on Staphylococcus hominis (setting [4]), the MIC worked out at 1000 µg/mL. The “malodour coverage ranking 6 h” value in assay [1] (setting [5]) is recorded as 4.2. Further, the “malodour coverage ranking 24 h” value in assay [1] (setting [5]) is recorded as 3.9.

With `CCCCCCC(O)C(C)O` (stereo not drawn) [2,3-C9, 2,3-nonanediol], the MIC in the assay with Corynebacterium xerosis (setting [3]) was 2500 µg/mL.

`CCCCC(O)C(C)O` (stereo not drawn) [2,3-C7, 2,3-Heptanediol]: the MIC in the assay with Corynebacterium xerosis (setting [3]) is 12500 µg/mL. For the same compound, in assay [1] (setting [6]), the “malodour coverage ranking 6 h” value was determined as 3.2 and the “malodour coverage ranking 24 h” value is recorded as 3.5.

For `CCCCCCCCCC(O)CO` (stereo not drawn) [1,2-C11, 1,2-undecandiol], the MIC with Staphylococcus hominis (Table 1, read-out: Minimum Inhibitory Concentration (MIC) Staphylococcus hominis) was found to be 125 µg/mL; in the assay on Staphylococcus aureus, 125 µg/mL (≈ 664 µM); in the assay on Candida albicans it was 64 µg/mL (≈ 340 µM); against Propionibacterium acnes it was 250 µg/mL (≈ 1330 µM); in the assay on Escherichia coli it was 250 µg/mL (≈ 1330 µM); with Corynebacterium jeikeium it was 250 µg/mL (≈ 1330 µM).

Turning to `CCCCCC(O)C(C)O` (stereo not drawn) [2,3-C8, 2,3-Octanediol], in assay [1] (setting [7]), the “malodour coverage ranking 6 h” value stood at 2.3 and the “malodour coverage ranking 24 h” value came out at 3.4. Besides, in assay [1] (setting [8]), the “malodour coverage ranking 24 h” value was found to be 3.2.

As to `CCCCCCC(O)CO` (stereo not drawn) [1,2-C8, 1,2-Octanediol], in assay [1] (setting [8]), the “malodour coverage ranking 24 h” value is 2.8.

In the case of `CC1CCC(C(C)C)C(OCC(O)CO)C1` (stereo not drawn) [3-((−)-Menthoxy)propane-1,2-diol], the MIC with Corynebacterium xerosis (setting [3]) was 500 µg/mL.

`CCCCCC(O)CO` (stereo not drawn) [1,2-C7, 1,2-heptanediol]: the MIC is 5000 µg/mL in the assay on Corynebacterium xerosis (setting [2]) and 10000 µg/mL in the assay on Staphylococcus hominis (setting [4]). Besides, the “MIC (ppm) Corynebacterium xerosis” value in the assay on Corynebacterium xerosis (setting [3]) is 5 000 ppm. Besides, the “malodour coverage ranking 6 h” value amounted to 2.3 in assay [1] (setting [6]) and 3.5 in assay [1] (setting [7]). Also, the “malodour coverage ranking 24 h” value in assay [1] (setting [6]) was 3.4; in assay [1] (setting [7]), 3.1; in assay [1] (setting [9]) it was 3.3. In addition, the “malodour coverage ranking 48 h” value in assay [1] (setting [9]) turned out to be 3.3.

Regarding `CC1CCC(C(C)C)C(OC(=O)C(C)O)C1` (single isomer, unassigned; (-)) [Menthyl lactate, (−)-Menthyl lactate], the MIC with Corynebacterium xerosis (setting [2]) was 250 µg/mL. Further, the MIC in the assay with Staphylococcus hominis (setting [4]) turned out to be 250 µg/mL. Further, in assay [1] (setting [5]), the “malodour coverage ranking 6 h” value is on record as 3.6 and the “malodour coverage ranking 24 h” value is given as 3.9. In addition, in assay [1] (setting [9]), the “malodour coverage ranking 24 h” value was 3.6 and the “malodour coverage ranking 48 h” value is recorded as 3.1.

Turning to `CC1CCC(C(C)C)C(O)C1` (stereo not drawn) [Menthol], in the assay with Corynebacterium xerosis (setting [3]), the MIC is 1000 µg/mL.
